Residues, ends and D or L forms follow the SMILES beside them. *: point of attachment. Cbz = O=C(OCc1ccccc1)*; CH2F = FC*
How the values were obtained:
[1] = system: P-selectin+ activated platelets; experiment: DIDS effect on GSAO-AF647 labelling of agonist-stimulated platelets (flow cytometry); assay type: cell-based, human; conditions: thrombin (0.1 units/mL) and collagen (5 μg/mL); 0-200 μM DIDS for 10 min; read-out: half-maximal concentration for inhibition of GSAO labelling of P-selectin+ activated platelets
Description: (§1) FIG. 2. GSAO rapidly enters the activated platelet subpopulation via an organic anion-transporting polypeptide. A. The kinetics of labeling of stimulated platelets with GSAO-AF647 was measured by time lapse flow cytometry. Flow plots are representative of n≥3 separate experiments, and bars and data points are from n≥3 separate experiments. *p<0.05, ****p<0.0001. B-C. […] DIDS inhibited GSAO labelling of P-selectin+ activated platelets at a half-maximal concentration of ˜30 μM. The data points and errors are the mean±range of 1-5 experiments.
The organic anion-transporting polypeptide (OATP) family has been implicated in transport across the plasma membrane of organic anions in the same class as GSAO (Dilda et al., 2009; Dilda et al., 2008). Nine members of the OATP family have been reported in humans (Hagenbuch et al., 2003) and platelets express OATP2B1 (Niessen et al., 2009). DIDS is an inhibitor of OATP class B transporters (Kobayashi et al. 2003) and the present inventors tested its effect on GSAO labelling of agonist-stimulated platelets. DIDS inhibited GSAO labelling of P-selectin+ activated platelets (FIG. 2B) at a half-maximal concentration of ˜30 μM (FIG. 2C). GSAO is retained in the platelet cytoplasm through covalent reaction with closely-spaced protein cysteine thiols (Park et al., 2011) (data not shown).

platelets in mouse blood = experiment: Whole blood assay for procoagulant platelet potential, mouse blood; assay type: cell-based; conditions: thrombin 2 U/mL, CRP 500 ng/mL; n=3 C57Bl6 bloods
Description: FIG. 14. Assay for procoagulant platelet potential in mouse blood. […] Bars and errors are mean±SEM of n=3 C57B16 bloods. One-way ANOVA. **, p<0.01; ****, p<0.0001.
(§2) Blood from healthy human volunteers was drawn from an antecubital fossa vein using a 21-gauge needle into evacuated sterile collection tubes containing 0.109 M sodium citrate. Following no or minimal tourniquet application, the initial 2 mL of blood was discarded to avoid pre-analytical activation of platelets. The tube was gently mixed by inversion six times. Murine blood samples were collected by cardiac puncture under isoflurane anesthesia. Following midline abdominal and bilateral subcostal surgical incisions to expose the heart, blood was drawn from the left ventricle through a 25G needle into a 1 mL syringe containing sodium citrate (0.109 M) resulting in a blood to citrate ratio of 9:1. The needle was removed and the blood was gently expelled from the syringe into a sterile microcentrifuge tube and mixed gently by pipetting up and down 5 times.
Following collection, tubes were kept upright at room temperature and blood was assayed within 15 min of collection. […]
(§3) Fixed cells were analyzed by flow cytometry 1 to 3 h after fixation at an average event rate of 2000 events per sec in an LSRFortessa flow cytometer, equipped with either four (405 nm, 488 nm, 561 nm and 640 nm) or five (395 nm) lasers (BD Biosciences). […]

washed human platelets [2] = experiment: GSAO-AF647 labelling and P-selectin exposure of washed platelets (flow cytometry); assay type: cell-based; conditions: thrombin 0.1 units/mL, collagen 5 μg/mL
Description: FIG. 1. GSAO labels a subpopulation of activated platelets. A. Structure of GSAO and site of conjugation of AF647, Oregon Green or biotin. B. Washed human platelets were stimulated with calcium ionophore (1 μM) and activation and plasma membrane compromise measured by flow cytometry. […] C. […] E. Washed human platelets were stimulated with collagen or collagen-related peptide and co-labeling with P-selectin and GSAO-AF647 measured by flow cytometry.
Calcium ionophore treatment of platelets leads to a sustained rise in intracellular calcium and surface elaboration of phosphatidylserine, which are features of both the procoagulant and necrotic phenotype (Bevers et al., 1982). Washed human platelets were treated with calcium ionophore and labeled with GSAO-AF647 and an antibody against the α-granule marker, P-selectin.
To determine whether GSAO labeling reflects this agonist profile, washed human platelets were stimulated with thrombin, collagen, or both thrombin and collagen. […] To determine if signalling through the collagen receptor, GPVI, was sufficient to generate the GSAO+ phenotype, the maximal proportion of GSAO+ platelets generated by collagen was compared with the GPVI specific activator, collagen related peptide.
The relationship between the activated and procoagulant phenotype of platelets remains controversial (Dale et al., 2002; Abaeva et al., 2013). Procoagulant platelets are characterised by presence of phosphatidylserine on the platelet surface, surface binding of plasma derived activated clotting factors, ability to generate thrombin and promotion of fibrin formation. Regardless of the agonist stimulus, 100% of GSAO+ platelets were positive for α-granule P-selectin, which implies that α-granule release is a prerequisite for GSAO labeling after agonist stimulation (FIG. 1). […] Of note, a subpopulation of GSAO− platelets also bound annexin V so platelet necrosis is not required for exposure of phosphatidylserine.

[3] = system: platelets in human whole blood; experiment: Whole blood assay for procoagulant platelet potential, human blood; assay type: cell-based; conditions: for proportion of procoagulant platelets (GSAO+/P-selectin+): thrombin 2 U/mL, collagen 10 μg/mL, mean±SEM, 16-35 donors
Excerpt: FIG. 12. Gating strategy for detection of procoagulant platelets in human whole blood. A. Platelets were identified as CD41a positive and CD45 negative events. B. Threshold values for P-selectin and GSAO fluorescence were set using agonist stimulated sample stained with control IgG isotype and GSCA respectively. C. At rest, very few platelets show the procoagulant phenotype (P-selectin+/GSAO+).
FIG. 13. Assay for procoagulant platelet potential in human blood. […] The maximal response (17.3±1.3%) was observed after stimulation with combination of thrombin and collagen. Results are mean±SEM from 16-35 donors. One-way ANOVA, […], Holm-Sidak multiple comparisons correction. *, p<0.05; ****, p<0.0001.
as §2
Following collection, tubes were kept upright at room temperature and blood was assayed within 15 min of collection. Incubation and staining steps were performed in a sterile 96-well polypropylene plate. […]
as §3

stimulated platelets = experiment: Kinetics of GSAO-AF647 labelling by time lapse flow cytometry; assay type: cell-based, human
Description: as §1
The rate of GSAO+ platelet generation after agonist exposure was measured using time lapse flow cytometry. Results are reported for GSAO+ events based on lead in time prior to agonist exposure threshold.

washed human platelets [4] = experiment: ABT-737 induced platelet apoptosis and pancaspase inhibition (flow cytometry); assay type: cell-based
Description: FIG. 4. Labeling with GSAO and exposure of P-selectin distinguishes necrotic from apoptotic platelets. […] The percentage of GSAO+ platelets are graphed with respect to P-selectin exposure. C. Washed human platelets were preincubated with 200 μM of ZVADFMK or vehicle control for 15 min then incubated with 30 μM of ABT-737 for 2 h (part F), or stimulated with thrombin (0.1 units/mL) and collagen (5 μg/mL) for 10 min (part G). Labeling with GSAO-AF647 and exposure of P-selection was measured by flow cytometry. D. Washed human platelets from healthy donors (n=5-11) were untreated or stimulated with thrombin (0.1 units/mL), collagen (5 μg/mL), or thrombin (0.1 units/mL) and collagen (5 μg/mL) for 10 min. […] The error bars are mean±SD.
Bcl-XL dependent apoptosis is involved in regulation of platelet life span, although the role of platelet apoptosis in thrombosis is controversial. In order to determine if GSAO can differentiate agonist-induced necrotic versus apoptotic platelets, platelet apoptosis was triggered using the BH3 mimetic ABT-737. GSAO labelled P-selectin negative apoptotic platelets (FIGS. 4A and B). The GSAO+ population also labeled with a polycaspase marker and annexin V, both indicators of apoptotic cells. […] Washed platelets from healthy donors were untreated or stimulated with thrombin, collagen or thrombin and collagen and examined for apoptosis (GSAO+/P-selectin−) and necrosis (GSAO+/P-selectin+) (FIG. 4D). These agonists trigger platelet necrosis but not apoptosis.

washed human platelets [5] = experiment: Direct mitochondrial membrane depolarization and GSAO labelling; assay type: cell-based; conditions: CCCP 4 μM
Excerpt: FIG. 9. Mitochondrial membrane disruption is not sufficient for GSAO labeling.
The cyclophilin D-dependent regulated necrosis pathway is characterized by agonist stimulation, raised intracellular calcium, formation of the mitochondrial transition pore and loss of mitochondrial membrane potential. Dual agonist stimulation of platelets results in loss of mitochondrial transmembrane potential (FIG. 5A). The onset of mitochondrial depolarisation (FIG. 5B) and phosphatidylserine exposure (FIG. 5C) are coincident with GSAO labeling.
Mitochondrial membrane potential was measured using the JC-1 cationic dye (5,5′,6,6′-tetrachloro-1,1′,3,3′-tetraethyl-imidacarbocyanine iodide, Sigma) (Life Technologies). Washed platelets were incubated with JC-1 (2 μM) for 30 min in the dark at 37° C., washed once and analyzed immediately on a BDFACS Canto II. On some occasions, washed platelets were incubated with the mitochondrial membrane disrupter 2-[2-(3-chlorophenyl)hydrazinylyidene]propanedinitrile (CCCP, 4 μM) for 10 min.

washed human platelets [6] = experiment: GSAO-AF647 labelling of thrombin and collagen stimulated platelets after preincubation; assay type: cell-based; conditions: CaCl2 preincubation 15 min
Description: FIG. 5. […] A. Washed human platelets were untreated or stimulated with thrombin (0.1 units/mL) and collagen (5 μg/mL) or the mitochondrial membrane disrupter CCCP (4 μM). Mitochondrial transmembrane potential was measured using the cationic dye, JC-1. The ratio of distribution of JC-1 between the mitochondria (red fluorescence) and cytosol (green fluorescence) reflects mitochondrial transmembrane potential. […] B-C. […] E. Washed human platelets were preincubated with CaCl2 for 15 min and then untreated or stimulated with thrombin (0.1 units/mL) and collagen (5 μg/mL).

In the case of `O=S(=O)(O)c1cc(N=C=S)ccc1C=Cc1ccc(N=C=S)cc1S(=O)(=O)O` [DIDS], the IC50 [1] is reported as ~30 µM.

With collagen related peptide the “potency as inducer of murine procoagulant platelets” value (platelets in mouse blood) was “significantly less potent than thrombin but synergizes with thrombin” and the “GSAO+ platelets generated by agonist” value (washed human platelets [2]) was “majority of the collagen effect was recapitulated”.

thrombin was tested, and the “potency as inducer of procoagulant platelets in human blood” value [3] was “most potent inducer”, the “proportion of procoagulant platelets (GSAO+/P-selectin+)” value [3] was 13.2±1.1% and the “time course of GSAO labeling after agonist” value (stimulated platelets) was “little GSAO labeling compared with unstimulated platelets”. For the same molecule, the “potency as inducer of murine procoagulant platelets” value (platelets in mouse blood) was “most potent inducer” and the “GSAO+ platelets generated by agonist” value (washed human platelets [2]) was “minimal GSAO+ platelets”.

`COC(=O)C[C@H](NC(=O)[C@H](C)NC(=O)[C@@H](NC(=O)OCc1ccccc1)C(C)C)C(=O)CF` [ZVADFMK] (Cbz-Val-Ala-Asp(OMe)-CH2F) was tested, and the “effect on ABT-737 induced GSAO+/P-selectin− platelets” value (washed human platelets [4]; 200 μM ZVADFMK 15 min, then 30 μM ABT-737 2 h) was “reduced” and the “effect on GSAO labeling of thrombin and collagen stimulated platelets” value (washed human platelets [4]; 200 μM ZVADFMK 15 min, then agonists 10 min) was “no effect”.

`N#CC(C#N)=NNc1cccc(Cl)c1` [CCCP, 2-[2-(3-chlorophenyl)hydrazinylyidene]propanedinitrile] was tested, and the “GSAO labelling after direct mitochondrial membrane depolarization” value (washed human platelets [5]) was “does not result in GSAO labelling”.

For `CN(C)CC[C@H](CSc1ccccc1)Nc1ccc(S(=O)(=O)NC(=O)c2ccc(N3CCN(Cc4ccccc4-c4ccc(Cl)cc4)CC3)cc2)cc1[N+](=O)[O-]` [ABT-737], the platelet phenotype induced (washed human platelets [4]; ABT-737 for 2 h) was “induced GSAO+/P-selectin− platelets”.

In the case of collagen, the “proportion of procoagulant platelets (GSAO+/P-selectin+)” value [3] is reported as 1.2±0.2%, the “time course of GSAO labeling after agonist” value (stimulated platelets) is reported as “gradual increase in GSAO labeling over 60 sec” and the “GSAO+ platelets generated by agonist” value (washed human platelets [2]) is reported as “moderate proportion”.

In the case of `[Ca]` [calcium], the “effect of added calcium on GSAO+ agonist stimulated platelets” value (washed human platelets [6]) is reported as “promoted”.

From patent US10828275B2, “Selective targeting of procoagulant platelets” (NewSouth Innovations Pty Limited, priority 2014, dated 2020)
